According to patent US20060040991A1, “Pharmaceutical presentation form for oral administration of a poorly soluble active compound, process for its preparation and kit” (Baxter International Inc., priority 2004, published 2006):

Assays:
[1] = Solubility of indibulin in solvents; assay type: physicochemical
[2] = Bioavailability on peroral administration in customary presentation forms; assay type: in vivo
[3] = tested on: tubulin; settings: cited from earlier work

Q: What does the source list for `O=C(Nc1ccncc1)C(=O)c1cn(Cc2ccc(Cl)cc2)c2ccccc12` [indibulin, N-(pyridin-4-yl)-[1-(4-chlorobenzyl)indol-3-yl]-glyoxylamide]?
A: solubility in various organic solvents ([1]; dimethylformamide, dimethyl sulfoxide and N-methylpyrrolidone): Adequate solubility; solubility in highly concentrated organic acids ([1]; greater than 50% by weight, e.g. acetic acid or lactic acid): relatively good solvents; solubility in hydrophilic solvents ([1]; water, methanol, ethanol and isopropanol): virtually insoluble; bioavailability ([2]; micronized active compound processed to oral presentation forms (suspensions, capsules or tablets)): comparatively low; bioavailability ([2]; perorally in customary presentation forms, e.g. powder, granule, tablet or capsule): low; in vitro and in vivo activity as a tubulin inhibitor [3]: significant
